Test results reported in ChEMBL document CHEMBL4024706 (Eur J Med Chem, 2017).

Key:
[1] = target: Tyrosine-protein kinase BTK (Homo sapiens, UniProt Q06187, C481S); assay: Irreversible inhibition of recombinant full length 3'-FLAG-tagged BTK C481S mutant (unknown origin) expressed in HEK293T cells assessed as reduction in Y223 phosphorylation measured after 4 hrs by Western blot method; assay type: cell-based
U2932 = assay: Cell cycle arrest in human U2932 cells assessed as increase in accumulation at G0/G1 phase after 48 hrs by propidium iodide/RNase staining based flow cytometric method; assay type: functional
[2] = MRT (0 to t) in Sprague-Dawley rat at 1 mg/kg, iv by LC-MS/MS method; assay type: ADME, organism-based; details: in vivo
[3] = Cmax in Sprague-Dawley rat at 1 mg/kg, iv by LC-MS/MS method; assay type: ADME, organism-based; set-up: dose 1 mg/kg, route intravenous; details: in vivo
[4] = test system: Tyrosine-protein kinase ABL1 (Homo sapiens), P00519 [Y253F]; assay: Inhibition of human phosphorylated ABL1 Y253F mutant (S229 to K512 residues) expressed in mammalian expression system assessed as residual activity at 1 uM by Kinomescan method relative to control
[5] = target: Cyclin-dependent kinase-like 5 (Homo sapiens) (UniProt O76039); assay: Inhibition of wild-type human partial length CDKL5 (M1 to S337 residues) expressed in mammalian expression system assessed as residual activity at 1 uM by Kinomescan method relative to control
[6] = target: Dual specificity tyrosine-phosphorylation-regulated kinase 1A (Homo sapiens) (UniProt Q13627); assay: Inhibition of wild-type human partial length DYRK1A (H129 to S509 residues) expressed in mammalian expression system assessed as residual activity at 1 uM by Kinomescan method relative to control
[7] = test system: Receptor-type tyrosine-protein kinase FLT3 (Homo sapiens), P36888 [D835H]; assay: Inhibition of human partial length FLT3 D835H mutant (V592 to Y969 residues) expressed in bacterial expression system assessed as residual activity at 1 uM by Kinomescan method relative to control
Homo sapiens = organism: Homo sapiens; assay: Inhibition of human partial length FLT3 ITD/D835V double mutant expressed in bacterial expression system assessed as residual activity at 1 uM by Kinomescan method relative to control
[8] = target: Cyclin-G-associated kinase (Homo sapiens) (UniProt O14976); assay: Inhibition of wild-type human partial length GAK (G13 to Y338 residues) expressed in bacterial expression system assessed as residual activity at 1 uM by Kinomescan method relative to control
Sequence of Cyclin-G-associated kinase (Homo sapiens) (O14976 whole entry, the tested form may be a part): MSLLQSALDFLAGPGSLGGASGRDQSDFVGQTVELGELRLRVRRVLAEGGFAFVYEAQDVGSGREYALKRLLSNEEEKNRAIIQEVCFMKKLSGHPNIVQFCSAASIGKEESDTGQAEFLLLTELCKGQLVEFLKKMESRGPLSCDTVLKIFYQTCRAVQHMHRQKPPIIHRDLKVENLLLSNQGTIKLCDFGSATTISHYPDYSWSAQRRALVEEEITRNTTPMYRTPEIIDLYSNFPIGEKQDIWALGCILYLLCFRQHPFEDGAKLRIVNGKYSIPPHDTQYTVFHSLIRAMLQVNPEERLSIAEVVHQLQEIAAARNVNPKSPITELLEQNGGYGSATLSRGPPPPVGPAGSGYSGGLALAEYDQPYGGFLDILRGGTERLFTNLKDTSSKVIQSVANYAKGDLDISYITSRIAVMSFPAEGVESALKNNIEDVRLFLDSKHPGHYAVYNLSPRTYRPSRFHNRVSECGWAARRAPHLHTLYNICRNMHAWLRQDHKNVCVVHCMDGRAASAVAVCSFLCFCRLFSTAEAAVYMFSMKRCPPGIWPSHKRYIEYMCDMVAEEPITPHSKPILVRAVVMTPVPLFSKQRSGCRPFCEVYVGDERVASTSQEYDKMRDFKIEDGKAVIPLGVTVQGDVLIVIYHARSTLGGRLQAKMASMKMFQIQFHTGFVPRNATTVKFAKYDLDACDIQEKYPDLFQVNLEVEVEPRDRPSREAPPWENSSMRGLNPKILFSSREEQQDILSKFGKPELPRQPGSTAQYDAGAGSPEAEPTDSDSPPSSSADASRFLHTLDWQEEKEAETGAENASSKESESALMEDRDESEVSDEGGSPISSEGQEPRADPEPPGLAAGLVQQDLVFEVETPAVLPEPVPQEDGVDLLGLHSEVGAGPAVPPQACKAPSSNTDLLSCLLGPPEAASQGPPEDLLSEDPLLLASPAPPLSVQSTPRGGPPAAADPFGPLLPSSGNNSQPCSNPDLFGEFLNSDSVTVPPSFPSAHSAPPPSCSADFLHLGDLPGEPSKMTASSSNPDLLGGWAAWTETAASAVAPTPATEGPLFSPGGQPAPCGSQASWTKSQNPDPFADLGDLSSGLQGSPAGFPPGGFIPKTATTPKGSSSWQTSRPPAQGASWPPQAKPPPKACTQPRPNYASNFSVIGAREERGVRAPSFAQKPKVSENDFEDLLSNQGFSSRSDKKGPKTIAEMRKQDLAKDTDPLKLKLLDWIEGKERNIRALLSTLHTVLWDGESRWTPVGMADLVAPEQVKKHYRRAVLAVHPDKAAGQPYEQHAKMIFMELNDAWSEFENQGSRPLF

[9] = target: Homeodomain-interacting protein kinase 1 (Homo sapiens) (UniProt Q86Z02); assay: Inhibition of wild-type human partial length HIPK1 (M146 to I555 residues) expressed in mammalian expression system assessed as residual activity at 1 uM by Kinomescan method relative to control
[10] = target: Homeodomain-interacting protein kinase 2 (Homo sapiens) (UniProt Q9H2X6); assay: Inhibition of wild-type human partial length HIPK2 (M153 to S564 residues) expressed in mammalian expression system assessed as residual activity at 1 uM by Kinomescan method relative to control
[11] = target: Tyrosine-protein kinase Lck (Homo sapiens) (UniProt P06239); assay: Inhibition of wild-type human partial length LCK (R207 to P509 residues) expressed in bacterial expression system assessed as residual activity at 1 uM by Kinomescan method relative to control
Sequence of Tyrosine-protein kinase Lck (Homo sapiens) (P06239 2-509 limits assumed): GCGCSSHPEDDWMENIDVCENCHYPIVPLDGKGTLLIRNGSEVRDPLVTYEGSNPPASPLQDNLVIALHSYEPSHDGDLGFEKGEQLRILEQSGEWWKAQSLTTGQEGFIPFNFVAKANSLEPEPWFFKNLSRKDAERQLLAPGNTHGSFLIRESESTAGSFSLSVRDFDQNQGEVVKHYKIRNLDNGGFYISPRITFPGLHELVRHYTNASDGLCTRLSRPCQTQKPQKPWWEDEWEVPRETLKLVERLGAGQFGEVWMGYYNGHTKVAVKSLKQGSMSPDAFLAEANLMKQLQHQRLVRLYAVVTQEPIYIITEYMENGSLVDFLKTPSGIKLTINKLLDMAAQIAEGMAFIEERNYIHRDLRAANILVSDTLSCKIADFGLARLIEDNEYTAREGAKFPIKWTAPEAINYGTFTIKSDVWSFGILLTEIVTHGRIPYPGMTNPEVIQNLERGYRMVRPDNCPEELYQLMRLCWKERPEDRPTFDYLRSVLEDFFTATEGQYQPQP

[12] = target: Leukocyte tyrosine kinase receptor (Homo sapiens) (UniProt P29376); assay: Inhibition of wild-type human partial length LTK (P422 to S744 residues) expressed in bacterial expression system assessed as residual activity at 1 uM by Kinomescan method relative to control
[13] = target: MAP kinase-activated protein kinase 5 (Homo sapiens) (UniProt Q8IW41); assay: Inhibition of wild-type human partial length MAPKAPK5 (M1 to D322 residues) expressed in mammalian expression system assessed as residual activity at 1 uM by Kinomescan method relative to control
Sequence of MAP kinase-activated protein kinase 5 (Homo sapiens) (Q8IW41 whole entry, the tested form may be a part): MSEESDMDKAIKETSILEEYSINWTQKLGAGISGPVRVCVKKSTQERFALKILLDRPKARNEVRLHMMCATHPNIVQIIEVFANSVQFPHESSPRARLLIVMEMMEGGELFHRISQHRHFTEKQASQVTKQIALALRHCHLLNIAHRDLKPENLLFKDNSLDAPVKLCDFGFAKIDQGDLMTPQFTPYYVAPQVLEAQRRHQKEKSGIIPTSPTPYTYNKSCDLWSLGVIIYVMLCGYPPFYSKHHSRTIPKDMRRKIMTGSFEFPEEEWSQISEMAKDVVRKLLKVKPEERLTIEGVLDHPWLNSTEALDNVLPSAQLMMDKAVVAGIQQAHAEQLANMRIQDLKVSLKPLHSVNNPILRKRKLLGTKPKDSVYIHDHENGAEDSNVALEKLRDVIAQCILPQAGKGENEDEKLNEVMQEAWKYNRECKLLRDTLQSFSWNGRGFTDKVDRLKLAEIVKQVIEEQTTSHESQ

[14] = target: Dual specificity mitogen-activated protein kinase kinase 2 (Homo sapiens) (UniProt P36507); assay: Inhibition of wild-type human full length MEK2 (M1 to V400 residues) expressed in mammalian expression system assessed as residual activity at 1 uM by Kinomescan method relative to control
Sequence of Dual specificity mitogen-activated protein kinase kinase 2 (Homo sapiens) (P36507 whole entry, the tested form may be a part): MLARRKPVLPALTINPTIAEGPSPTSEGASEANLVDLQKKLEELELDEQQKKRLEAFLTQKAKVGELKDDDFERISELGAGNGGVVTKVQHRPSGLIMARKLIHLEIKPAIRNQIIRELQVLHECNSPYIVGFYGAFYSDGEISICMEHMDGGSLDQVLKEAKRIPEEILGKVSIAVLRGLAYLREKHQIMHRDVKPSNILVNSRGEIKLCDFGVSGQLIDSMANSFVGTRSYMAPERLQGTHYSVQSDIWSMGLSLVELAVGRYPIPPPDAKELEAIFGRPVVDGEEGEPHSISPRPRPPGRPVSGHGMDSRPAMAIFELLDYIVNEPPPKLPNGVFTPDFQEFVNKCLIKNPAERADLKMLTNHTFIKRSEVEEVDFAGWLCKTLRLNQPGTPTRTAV

[15] = target: Myosin light chain kinase 2, skeletal/cardiac muscle (Homo sapiens) (UniProt Q9H1R3); assay: Inhibition of wild-type human partial length MYLK2 (D258 to K570 residues) expressed in bacterial expression system assessed as residual activity at 1 uM by Kinomescan method relative to control
[16] = target: Serine/threonine-protein kinase Nek10 (Homo sapiens) (UniProt Q6ZWH5); assay: Inhibition of wild-type human partial length NEK10 (L488 to R809 residues) expressed in mammalian expression system assessed as residual activity at 1 uM by Kinomescan method relative to control
[17] = target: Serine/threonine-protein kinase Nek4 (Homo sapiens) (UniProt P51957); assay: Inhibition of wild-type human full length NEK4 (M1 to F841 residues) expressed in mammalian expression system assessed as residual activity at 1 uM by Kinomescan method relative to control
Sequence of Serine/threonine-protein kinase Nek4 (Homo sapiens) (P51957 whole entry, looked up, the tested form may be a part, canonical isoform): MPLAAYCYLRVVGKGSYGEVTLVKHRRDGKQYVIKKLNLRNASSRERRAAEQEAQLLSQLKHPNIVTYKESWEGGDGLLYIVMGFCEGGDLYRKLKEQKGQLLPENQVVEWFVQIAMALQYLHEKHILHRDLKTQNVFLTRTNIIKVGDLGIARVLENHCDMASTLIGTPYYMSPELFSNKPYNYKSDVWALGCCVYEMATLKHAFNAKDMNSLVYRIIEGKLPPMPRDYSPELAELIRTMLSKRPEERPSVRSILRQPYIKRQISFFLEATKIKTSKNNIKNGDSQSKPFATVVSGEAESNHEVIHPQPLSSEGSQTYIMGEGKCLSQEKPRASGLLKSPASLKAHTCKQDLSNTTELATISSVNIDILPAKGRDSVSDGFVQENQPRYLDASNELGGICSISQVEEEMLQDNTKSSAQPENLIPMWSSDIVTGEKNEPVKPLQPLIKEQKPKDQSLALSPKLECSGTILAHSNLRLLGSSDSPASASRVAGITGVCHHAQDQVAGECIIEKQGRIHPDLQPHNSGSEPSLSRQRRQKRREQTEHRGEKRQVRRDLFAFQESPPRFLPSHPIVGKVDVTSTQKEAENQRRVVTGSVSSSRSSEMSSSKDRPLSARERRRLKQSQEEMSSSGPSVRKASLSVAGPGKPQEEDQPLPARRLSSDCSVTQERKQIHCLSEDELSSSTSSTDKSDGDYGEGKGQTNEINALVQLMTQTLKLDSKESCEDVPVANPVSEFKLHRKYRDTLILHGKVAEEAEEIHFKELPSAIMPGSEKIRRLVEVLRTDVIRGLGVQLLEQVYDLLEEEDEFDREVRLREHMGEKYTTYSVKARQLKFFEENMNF

[18] = target: Phosphorylase b kinase gamma catalytic chain, liver/testis isoform (Homo sapiens) (UniProt P15735); assay: Inhibition of wild-type human partial length PHKG2 (M1 to W300 residues) expressed in bacterial expression system assessed as residual activity at 1 uM by Kinomescan method relative to control
[19] = target: SRSF protein kinase 1 (Homo sapiens) (UniProt Q96SB4); assay: Inhibition of wild-type human full length SRPK1 (M1 to S655 residues) expressed in bacterial expression system assessed as residual activity at 1 uM by Kinomescan method relative to control
[20] = target: STE20/SPS1-related proline-alanine-rich protein kinase (Homo sapiens) (UniProt Q9UEW8); assay: Inhibition of wild-type human partial length STK39 (P43 to I357 residues) expressed in mammalian expression system assessed as residual activity at 1 uM by Kinomescan method relative to control
[21] = target: Serine/threonine-protein kinase TNNI3K (Homo sapiens) (UniProt Q59H18); assay: Inhibition of wild-type human full length TNNI3K (M1 to S835 residues) expressed in bacterial expression system assessed as residual activity at 1 uM by Kinomescan method relative to control
[22] = target: Vascular endothelial growth factor receptor 2 (Homo sapiens) (UniProt P35968); assay: Inhibition of wild-type human partial length VEGFR2 (R787 to P1253 residues) expressed in mammalian expression system assessed as residual activity at 1 uM by Kinomescan method relative to control
[23] = target: Phosphatidylinositol 3-kinase catalytic subunit type 3 (Homo sapiens) (UniProt Q8NEB9); assay: Inhibition of wild-type human partial length VPS34 (S282 to H879 residues) expressed in mammalian expression system assessed as residual activity at 1 uM by Kinomescan method relative to control
Sequence of Phosphatidylinositol 3-kinase catalytic subunit type 3 (Homo sapiens) (Q8NEB9 whole entry, the tested form may be a part): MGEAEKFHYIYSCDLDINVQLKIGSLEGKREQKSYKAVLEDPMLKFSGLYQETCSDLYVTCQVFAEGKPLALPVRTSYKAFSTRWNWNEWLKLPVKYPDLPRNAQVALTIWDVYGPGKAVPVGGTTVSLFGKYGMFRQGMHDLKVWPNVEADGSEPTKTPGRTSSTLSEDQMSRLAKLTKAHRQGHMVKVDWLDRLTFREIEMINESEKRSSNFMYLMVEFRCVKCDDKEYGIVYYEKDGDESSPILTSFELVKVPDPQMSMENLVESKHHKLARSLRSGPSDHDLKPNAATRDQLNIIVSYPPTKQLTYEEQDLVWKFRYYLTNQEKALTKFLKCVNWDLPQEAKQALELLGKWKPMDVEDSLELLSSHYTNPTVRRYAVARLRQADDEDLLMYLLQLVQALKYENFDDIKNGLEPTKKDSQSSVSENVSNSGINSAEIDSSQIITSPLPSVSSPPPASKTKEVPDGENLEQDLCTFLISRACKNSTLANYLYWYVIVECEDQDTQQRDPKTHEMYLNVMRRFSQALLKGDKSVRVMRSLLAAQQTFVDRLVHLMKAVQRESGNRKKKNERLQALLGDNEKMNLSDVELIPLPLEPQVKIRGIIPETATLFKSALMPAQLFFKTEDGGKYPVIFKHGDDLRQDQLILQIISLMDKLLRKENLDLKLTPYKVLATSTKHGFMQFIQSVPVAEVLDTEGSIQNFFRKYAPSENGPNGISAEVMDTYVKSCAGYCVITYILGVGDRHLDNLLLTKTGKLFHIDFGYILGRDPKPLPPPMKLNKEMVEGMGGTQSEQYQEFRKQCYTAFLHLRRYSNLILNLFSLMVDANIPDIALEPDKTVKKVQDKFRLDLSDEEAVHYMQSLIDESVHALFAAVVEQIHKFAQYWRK

[24] = target: Serine/threonine-protein kinase 32C (Homo sapiens) (UniProt Q86UX6); assay: Inhibition of wild-type human partial length YANK3 (M68 to G486 residues) expressed in bacterial expression system assessed as residual activity at 1 uM by Kinomescan method relative to control
Sequence of Serine/threonine-protein kinase 32C (Homo sapiens) (Q86UX6 whole entry, the tested form may be a part): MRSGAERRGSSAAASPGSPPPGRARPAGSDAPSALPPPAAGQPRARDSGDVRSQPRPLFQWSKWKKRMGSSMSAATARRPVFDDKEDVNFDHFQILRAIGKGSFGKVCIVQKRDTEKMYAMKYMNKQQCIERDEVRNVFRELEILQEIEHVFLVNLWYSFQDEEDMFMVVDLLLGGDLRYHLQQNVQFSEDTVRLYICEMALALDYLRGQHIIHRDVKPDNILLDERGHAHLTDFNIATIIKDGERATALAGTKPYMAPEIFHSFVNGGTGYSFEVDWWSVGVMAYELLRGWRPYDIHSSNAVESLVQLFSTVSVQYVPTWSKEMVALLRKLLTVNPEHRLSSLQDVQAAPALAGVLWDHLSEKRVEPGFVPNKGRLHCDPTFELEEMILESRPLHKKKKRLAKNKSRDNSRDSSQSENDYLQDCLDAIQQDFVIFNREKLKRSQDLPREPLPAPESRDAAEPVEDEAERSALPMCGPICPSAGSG

With `C=CC(=O)Nc1cc(Nc2cc(-c3cccc(NC(=O)c4ccc(C(C)(C)C)cc4)c3C)cn(C)c2=O)ccc1C(=O)N1CCOCC1` the EC50 [1] was greater than 100 nM, the Activity (U2932) was “Dose-dependent effect” and the MRT last [2] was 15.6 min. It also gave a Cmax [3] of 897 ng/mL, an Activity [4] of 97% and an Activity [5] of 100%. The Activity [6] was 100%, the Activity [7] was 100% and the Activity (Homo sapiens) was 100%. It also gave an Activity [8] of 99%, an Activity [9] of 100% and an Activity [10] of 100%. For the same compound, the Activity [11] was 97%, the Activity [12] was 81% and the Activity [13] was 100%. It also gave an Activity [14] of 100%, an Activity [15] of 100% and an Activity [16] of 92%. The Activity [17] was 100%, the Activity [18] was 100% and the Activity [19] was 100%. It also gave an Activity [20] of 70%, an Activity [21] of 37% and an Activity [22] of 97%. It also gave an Activity [23] of 90% and an Activity [24] of 97%.
